Test results published in ChEMBL document CHEMBL2202956, “(±)-Tylopilusins, diphenolic metabolites from the fruiting bodies of Tylopilus eximius” (J Nat Prod, 2012).

How the values were obtained:
Staphylococcus aureus [1] = test: Toxicity in methicillin-resistant Staphylococcus aureus assessed as growth inhibition at 20 ug/6mm disk after 68 hrs; type: organism-based; settings: in vitro
Staphylococcus aureus [2] = test: Inhibition of yellow pigment production in methicillin-resistant Staphylococcus aureus at 20 ug/6mm disk after 68 hrs by paper disk method; type: functional

Row | Compound | Activity (Staphylococcus aureus [1]) | inhibition zone (IZ) (Staphylococcus aureus [2]) [mm]
1 | COC(=O)[C@]1(O)C(c2ccc(O)cc2)=C(O)C(=O)[C@]1(O)c1ccc(O)cc1 | Non-toxic | 7
2 | COC(=O)[C@@]1(O)C(c2ccc(O)cc2)=C(O)C(=O)[C@@]1(OC)c1ccc(O)cc1 | Non-toxic | 8
3 | COC(=O)[C@]1(O)C(c2ccc(O)cc2)=C(O)C(=O)[C@]1(OC)c1ccc(O)cc1 | Non-toxic | 9
4 | COC(=O)[C@@]1(O)C(c2ccc(O)cc2)=C(O)C(=O)[C@@]1(O)c1ccc(O)cc1 | Non-toxic | 7
